What was measured:
Drosophila = test system: Drosophila; parameters: method as in PMID 20559435; settings: cited from earlier work
[1] = test system: soluble Aβ and β-amyloid plaque deposits in mice; parameters: method as in PMID 22323736; settings: oral administration, cited from earlier work
[2] = parameters: method as in earlier work; settings: no reference given; 53 concern derivatives; cited from earlier work
Aβ = test system: Aβ; parameters: method as in 2 sources, ref 16 = [16]; PMID 20230062; doi:10.1021/bi100144m; 16 Taylor M , Moore S , Mayes J , Parkin E , Beeg M , et al ( 2010 ) Development of a proteolytically stable retro-inverso peptide inhibitor of β-amyloid oligomerization as a potential novel treatment ||| ref 5, 52 = [5]; PMID 19605645; doi:10.1523/JNEUROSCI.1071-09.2009; 5 Ma QL , Yang F , Rosario ER , Ubeda OJ , Beech W , et al ( 2009 ) β-amyloid oligomers induce phosphorylation of tau and inactivation of insulin receptor substrate via c-Jun N-terminal kinase signali || [52]; PMID 15590663; doi:10.1074/jbc.M404751200; 52 Yang F , Lim GP , Begum AN , Ubeda OJ , Simmons MR , et al ( 2005 ) Curcumin inhibits formation of amyloid β oligomers and fibrils, binds plaques, and reduces amyloid in vivo . J Biol Chem 280 : 58; settings: cited from earlier work
AD patients = settings: cited from earlier work
cultured cells = test system: cultured cells; parameters: method as in PMID 20230062; settings: cited from earlier work
Aβ42 = assay: Thioflavin T (ThT) assay for Aβ fibrils; assay type: biochemical; settings: ThT, 25 µM Aβ42, 48 h; figure title
Protocol: This method was the same as that published previously. Briefly, 60 µl samples of solutions containing Aβ42 (25 µM), ThT (15 µM) and between 0 and 125 µM RI-OR2 or RI-OR2–TAT, in 10 mM phosphate buffered saline (PBS), pH 7.4, were incubated in sealed, black, clear-bottomed 384-well plates (Corning). ThT fluorescence was monitored every 10 mins (λex = 442 nm, λem = 483 nm) for 48 h at 30°C in a Biotek Synergy 2 plate reader.

[3] = molecular target: immobilized Aβ(1–42) (Aβ42) monomers, oligomers and fibrils; parameters: method as in PMID 20230062; settings: SPR; cited from earlier work
SHSY-5Y cells = assay: Cell penetration of fluorescein-tagged peptides, microscopy; settings: 1 µM
APP/PS1 transgenic mice = assay: Blood brain barrier penetration and brain localisation after i.p. injection; assay type: in vivo, mouse; settings: 100 nmol/kg i.p., 1 h, 17-month old APP/PS1 mice
Protocol: APPswe/PS1ΔE9 mice with a C57Bl/6 background (APP/PS1 mice) were obtained from the Jackson lab (http://research.jax.org/repository/alzheimers.html). […] To look at the effects of RI-OR2-TAT on mouse brain pathology (experiment 2), 8 female 10-months-old APP/PS1 mice were used. The animals were housed in single cages in a temperature controlled holding room (21.5°C±1) with 12∶12 h light and dark cycle. Food and water was available ad libitum.
The animals were then housed in a dark room. After 1 h, the animals were anaesthetised with isoflurane and sodium barbiturate (Dolethal, Bayer, Germany), transcardially perfused and the brains were retrieved and fixed in 4% ice cold paraformaldehyde.
For experiment 1 (BBB penetration), individual sections were incubated with the following primary antibodies at 4°C overnight: anti-Aβ (1∶200 dilution, Invitrogen, 71–5800), or anti-Iba 1 (1∶1000 dilution, Wako 016-20001, Germany). Sections were then stained with goat anti-rabbit Alexa Fluor 555 (1∶150 dilution, A21428 Invitrogen) for 1 h.
All sections were visualized using an Axio Scope 1 fluorescence microscope (Zeiss, Germany). For quantification, two images per section were taken from the cortex area with a 10X objective for 8-oxo guanine and β-amyloid staining, and a 100X objective for Iba1 staining, with a minimum of 5 sections visualized per animal. […]

For `O=C1C=C(N[C@@H](Cc2c[nH]c3ccccc23)C(=O)O)C(=O)c2ccccc21` [NQTrp, 1,4-naphthoquinon-2-yl-L-tryptophan], the “phenotypic changes in Drosophila AD model” value (Drosophila) is listed as “reversed phenotypic changes in Drosophila”.

In the case of `C=C(c1ccc(C(=O)O)cc1)c1cc2c(cc1C)C(C)(C)CCC2(C)C` [bexarotene], the “clearance of soluble Aβ” value ([1]; apoE-mediated mechanisms) is listed as “enhance clearance of soluble Aβ” and the β-amyloid plaque deposits [1] is listed as “reduce β-amyloid plaque deposits in mice”.

In the case of `COc1cc(/C=C/C(=O)CC(=O)/C=C/c2ccc(O)c(OC)c2)ccc1O` [curcumin, reference compound], the bioavailability [2] is listed as “poor bioavailability” and the “inhibition of Aβ aggregation” value (Aβ) is listed as “effective inhibitor of Aβ aggregation”.

In the case of “AN1792: pre-aggregated Aβ42, first clinical trial of immunisation”, the “adverse effects in first clinical trial” value (AD patients; human, in vivo) is listed as “adverse effects involving detrimental T-cell-mediated brain inflammation”.

For Ac-rGffvlkGr-NH2 [RI-OR2], the “effect on Aβ toxicity to cultured cells” value (cultured cells) is listed as “inhibits the toxic effects of Aβ on cultured cells”, the “inhibition of Aβ42 aggregation (Fig. 1)” value (Aβ42) is listed as “inhibit the aggregation of Aβ42” and the Kd [3] is listed as 9 to 29 µM. The “inhibition of Aβ oligomer and fibril formation in vitro” value (Aβ) was “blocks the formation of Aβ oligomers and fibrils in vitro”.

In the case of Solanezumab: Solanezumab (Eli Lilly), the “Phase III trial outcome” value (AD patients; mild-to-moderate AD, ref presented at CTAD 2012) is given as “did not achieve key Phase III trial goals of improved cognition and function”.

In the case of fluorescein-rGffvlkGr-NH2 [Flu-RI-OR2], the “cell uptake (fluorescence localisation)” value (SHSY-5Y cells; 1 h) is reported as “remained in the culture medium”.

With “fluorescein-rGffvlkGrrrrqrrkkrGy-NH2 [Flu-RI-OR2-TAT]” the “localisation relative to activated microglia” value (APP/PS1 transgenic mice; AlexaFluor 555 anti-Iba 1) was “found inside activated microglial cells”, the “localisation relative to amyloid plaques” value (APP/PS1 transgenic mice; cerebral cortex, AlexaFluor 555 anti-Aβ) was “co-localised with amyloid plaques” and the “cell uptake (fluorescence localisation)” value (SHSY-5Y cells; 10 mins) was “build up of fluorescence inside the cells”.

— publication PMC3561363, “A Novel Retro-Inverso Peptide Inhibitor Reduces Amyloid Deposition, Oxidation and Inflammation and Stimulates Neurogenesis in the APPswe/PS1ΔE9 Mouse Model of Alzheimer’s Disease” (PLoS ONE, 2013)
